In test [1] the target is T1, Substance-K receptor (Rattus norvegicus, UniProt P16610).
T1 sequence (P16610 whole entry): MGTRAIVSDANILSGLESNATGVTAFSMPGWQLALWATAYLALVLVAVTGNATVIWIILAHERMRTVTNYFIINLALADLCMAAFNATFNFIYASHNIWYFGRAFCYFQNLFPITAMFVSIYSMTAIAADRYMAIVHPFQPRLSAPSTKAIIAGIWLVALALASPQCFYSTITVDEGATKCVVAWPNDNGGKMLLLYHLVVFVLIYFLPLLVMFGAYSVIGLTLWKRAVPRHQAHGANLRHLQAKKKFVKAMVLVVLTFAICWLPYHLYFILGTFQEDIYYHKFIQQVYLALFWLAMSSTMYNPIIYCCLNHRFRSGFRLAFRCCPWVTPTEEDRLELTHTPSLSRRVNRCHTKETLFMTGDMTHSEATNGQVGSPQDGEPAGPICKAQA
As to the kind of experiment: Binding affinity by displacement of radiolabeled GR-100679 from Tachykinin receptor 2 from homogenized rat colon.

The next test relates to Cavia porcellus. The test can be described thus: In vivo ability to inhibit bronchoconstriction induced by GR-64349 (i.v.) in guinea pigs. It counts as functional.
Test [2] has as its target T2, Substance-K receptor (Cavia porcellus) (UniProt Q64077).
T2 sequence (whole entry): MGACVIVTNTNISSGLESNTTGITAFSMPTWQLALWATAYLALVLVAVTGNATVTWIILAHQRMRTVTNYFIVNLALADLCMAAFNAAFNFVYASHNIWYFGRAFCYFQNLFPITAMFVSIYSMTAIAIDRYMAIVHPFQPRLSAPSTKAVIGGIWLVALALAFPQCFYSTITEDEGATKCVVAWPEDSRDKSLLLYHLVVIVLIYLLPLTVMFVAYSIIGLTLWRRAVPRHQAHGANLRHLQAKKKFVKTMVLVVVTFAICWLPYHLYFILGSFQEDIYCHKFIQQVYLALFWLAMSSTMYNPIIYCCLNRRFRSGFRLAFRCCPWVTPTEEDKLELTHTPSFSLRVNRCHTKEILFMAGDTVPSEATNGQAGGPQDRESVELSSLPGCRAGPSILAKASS
Description: Binding affinity against NK2 receptor in guinea-pig trachea

In the next test the target is T3, Neuromedin-K receptor (Cavia porcellus, UniProt P30098).
T3 sequence (P30098 whole entry): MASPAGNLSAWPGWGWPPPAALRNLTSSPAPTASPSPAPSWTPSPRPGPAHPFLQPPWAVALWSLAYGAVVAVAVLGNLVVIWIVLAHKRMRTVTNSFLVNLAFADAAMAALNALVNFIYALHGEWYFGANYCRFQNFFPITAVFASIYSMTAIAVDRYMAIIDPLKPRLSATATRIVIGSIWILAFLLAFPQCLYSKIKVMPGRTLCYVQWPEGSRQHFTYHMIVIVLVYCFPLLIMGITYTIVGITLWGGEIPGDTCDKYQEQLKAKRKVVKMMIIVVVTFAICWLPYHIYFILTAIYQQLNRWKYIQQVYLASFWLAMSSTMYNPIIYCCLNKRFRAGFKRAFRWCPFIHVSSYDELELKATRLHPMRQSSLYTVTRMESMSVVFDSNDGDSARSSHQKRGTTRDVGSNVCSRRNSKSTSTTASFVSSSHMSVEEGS
As to the kind of experiment: Tested for inhibition of binding of [3H]senktide to Tachykinin receptor 3 in guinea pig cerebral cortex membranes. It counts as tissue-based, Membrane.

The target in test [3] is T4, Substance-K receptor (Homo sapiens, UniProt P21452).
T4 sequence (P21452 whole entry): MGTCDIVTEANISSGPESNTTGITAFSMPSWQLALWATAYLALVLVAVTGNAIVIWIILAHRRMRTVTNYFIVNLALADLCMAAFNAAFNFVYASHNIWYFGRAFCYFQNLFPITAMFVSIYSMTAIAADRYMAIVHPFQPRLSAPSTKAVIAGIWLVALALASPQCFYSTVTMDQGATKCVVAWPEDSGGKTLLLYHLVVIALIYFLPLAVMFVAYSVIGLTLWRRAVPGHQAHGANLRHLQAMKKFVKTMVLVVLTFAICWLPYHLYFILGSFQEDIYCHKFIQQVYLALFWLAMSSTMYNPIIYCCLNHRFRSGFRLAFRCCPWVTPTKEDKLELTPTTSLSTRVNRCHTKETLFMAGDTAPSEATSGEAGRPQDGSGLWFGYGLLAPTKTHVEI
As to the kind of experiment: Binding affinity against Tachykinin receptor 2 of human expressed in chinese hamster ovary cells. It counts as cell-based, CHO.

The target of test [4] is T2, Substance-K receptor (Cavia porcellus). As to the kind of experiment: Binding affinity against Tachykinin receptor 2 in guinea-pig trachea.

The source of these data is ChEMBL document CHEMBL1127949, “GR159897 and related analogues as highly potent, orally active non-peptide neurokinin NK2 receptor antagonists” (Bioorg Med Chem Lett, 1994).

For orientation: Ki means the equilibrium dissociation constant of an inhibitor or competing ligand from its target. As a reminder, the pKB is −log10 of the KB, conventionally taken in molar units. High values mean a low KB, low ones a high KB.

Take `[O-][S+](CC1(O)CCN(CCc2c[nH]c3ccc(F)cc23)CC1)c1ccccc1` (stereo in doubt; 6) [4-BENZENESULFINYLMETHYL-1-[2-(5-FLUORO-1H-INDOL-3-YL)-ETHYL]-PIPERIDIN-4-OL (STRUCTURAL MIX)]: on Substance-K receptor [1], the affinity corresponds to a Ki of 0.501 nM.
For `[O-][S@+](CC1(O)CCN(CCc2c[nH]c3ccc(F)cc23)CC1)c1ccccc1` (stereo in doubt; 5), the Dose in the test with Cavia porcellus was 3 µM/kg. On Substance-K receptor [1], the affinity, expressed as Ki, was 3.98 nM.
As for `N#Cc1ccc2[nH]cc(CCN3CCC(NC(=O)c4ccccc4)CC3)c2c1`, the Ki at Substance-K receptor [1] is 1580 nM.
In turn, `O=S(=O)(CC1(O)CCN(CCc2c[nH]c3ccc(F)cc23)CC1)c1ccccc1` had a Ki on Substance-K receptor [1] of 31.6 nM.
Take `[O-][S@+](CC1(O)CCN(CCc2c[nH]c3ccc(F)cc23)CC1)c1ccccc1` (stereo in doubt; 8) [listing 1 of 2 here]: the negative-log KB (pKB) in test [2] worked out at 8.7.
Turning to `[O-][S@+](CC1(O)CCN(CCc2c[nH]c3ccc(F)cc23)CC1)c1ccccc1` (stereo in doubt; 8) [listing 2 of 2 here], the figures for the Ki on Substance-K receptor [1] and at Neuromedin-K receptor were 0.316 nM and 39800 nM, respectively.
At Substance-K receptor [1], `Cc1ccccc1OCC1(O)CCN(CCc2c[nH]c3ccc(F)cc23)CC1` showed a Ki of 31.6 nM.
`Cc1ccccc1OCC(O)CNCCc1c[nH]c2ccc(F)cc12` (stereo unspecified): the Ki at Substance-K receptor [1] is 1000 nM.
With `COC1(C[S@@+]([O-])c2ccccc2)CCN(CCc2c[nH]c3ccc(F)cc23)CC1`, the Dose in the test on Cavia porcellus was 3 µM/kg. The inhibition constant (Ki) on Substance-K receptor [3] is 0.316 nM; on Substance-K receptor [1] it was 0.1 nM; at Neuromedin-K receptor it was 20000 nM. Further, in test [4], the pKB came out at 9.7.
`[O-][S+](CC1(O)CCN(CCc2c[nH]c3ccc(F)cc23)CC1)c1ccccc1` (stereo in doubt; 9) [4-BENZENESULFINYLMETHYL-1-[2-(5-FLUORO-1H-INDOL-3-YL)-ETHYL]-PIPERIDIN-4-OL (STRUCTURAL MIX)] gave an inhibitory constant (Ki) at Substance-K receptor [1] of 7.94 nM.
